From paper PMC7932537, “Quantitative profiling of protease specificity” (PLoS Computational Biology, 2021)

Columns and labels:
MMP-2 = assay: N-terminomic (TMT) analysis of MMP-treated HEK293 secretome: isotopic enrichment of novel N-termini; assay type: biochemical, human; settings: for isotopic enrichment (log2(ratio)): MMP2 cleavages in HEK293 cell proteins, determined by LC-MS/MS, novel N-termini, sections log2(ratio) >3σ, 2σ-3σ, 1σ-2σ, RP above 4.5
Procedure: (§1) This was done to achieve a reasonable compromise between the false positive and false negative rates based on the statistical model developed by the authors. […] (See Methods for details).
(§2) HEK293 cells were seeded in 150-mm tissue culture dishes (Corning) and grown to confluence. The confluent cultures were washed with PBS several times to remove serum proteins and kept in serum-free DMEM supplemented with 1 μM GM6001 for 72 hours at 37 C, 5% CO2. The conditioned media was centrifuged at 10,000 x g for 30 minutes at 4 C and concentrated ~100-fold using Centricon Plus-70 (AMD Millipore) 3-kDa m.w. cut-off ultrafilter, and the buffer was exchanged to 50 mM HEPES pH 7.0 containing 150 mM NaCl and 10 mM CaCl2 (Reaction Buffer) using a PD-10 desalting column (GE Healthcare). Aliquots containing 240 μg total protein were incubated at 37 C in the presence of 750 nM MMP2 or 9 or the Reaction Buffer alone for 2 hours. Each reaction was carried out in duplicate. The reactions were stopped by addition of 20 mM EDTA and subjected to denaturation/reduction (4M Urea and 10 mM TCEP, 1 h, 22°C) and alkylation (20 mM iodoacetamide, 30 min, 22°C, in dark). […] The TMT-labeled samples were pooled together, and subjected to TCA precipitation (20% TCA, 16 h, 4°C). Each pellet was washed with -20°C acetone, recovered in 50 mM Tris-HCl pH 8.0, and then digested with trypsin/Lys-C (Promega) for 16 h at 37°C. Digestions were stopped with 0.2% TFA and centrifuged to remove insoluble material. The supernatants were then desalted using Sep-Pak C18 cartridge (50 mg), and then lyophilized.
(§3) Dried pooled sample was reconstituted in 20 mM ammonium formate pH ~10 and fractionated using a Waters Acquity BEH C18 column (2.1x 15 cm, 1.7 μm pore size) mounted on an M-Class Ultra Performance Liquid Chromatography (UPLC) system (Waters). […] A total of 32 fractions were collected and pooled in a non-contiguous manner into 16 total fractions. Pooled fractions were dried to completeness in a SpeedVac concentrator prior to mass spectrometry analysis.
(§4) Dried peptide fractions were reconstituted with 2% ACN-0.1% FA and analyzed by LC-MS/MS using a Proxeon EASY nanoLC system (Thermo Fisher Scientific) coupled to a Q-Exactive Plus mass spectrometer (Thermo Fisher Scientific). […] The mass spectrometer was operated in positive data-dependent acquisition mode. MS1 spectra were measured with a resolution of 70,000 (AGC target: 1e6; mass range: 350–1700 m/z).
(§5) The false discovery rate (FDR) filter for spectrum and protein identification was set to 1%. Carbamidomethylation of cysteines was searched as a fixed modification, while oxidation of methionines and N-terminal acetylation were searched as variable modifications. Enzyme was set to trypsin in a semispecific mode and a maximum of two missed cleavages was allowed for searching. To obtain quantification of the TMT-labeled N-termini, two independent searches were performed–one with TMT10plex MS2 N-terminal reporter quantification and the other for quantification of N-terminal and lysine sidechain.

MMP-9 = assay: as above; assay type: biochemical, human; settings: for isotopic enrichment (log2(ratio)) (acc.to MMP9): HEK293 proteins; for isotopic enrichment (log2(ratio)): MMP9 cleavages in HEK293 cell proteins, determined by LC-MS/MS, log2(ratio) range (>3σ, 2σ-3σ, 1σ-2σ)
Procedure: as §1, §2, §3, §4, §5

[1] = MMP2 cleaved HEK293 proteins, common set of MMP2-9 selectome, LC-MS/MS
[2] = MS detected cleavage sequence, HEK293 proteins, common MMP2-9 selectome
[3] = MMP9, common set of MMP2-9 selectome, LC-MS/MS
[4] = MS detected cleavage sequence, common MMP2-9 selectome
[5] = MS detected cleavage sequence, HEK293 proteins, unique part of MMP2 selectome
[6] = MS detected cleavage sequence, unique part of MMP2 selectome

Substance	isotopic enrichment (log2(ratio)) (acc.to MMP2) (MMP-2; [1])	isotopic enrichment (log2(ratio)) (acc.to MMP2) (MMP-2; [2])	isotopic enrichment (log2(ratio)) (acc.to MMP9) (MMP-9; [3])	isotopic enrichment (log2(ratio)) (MMP-9)	isotopic enrichment (log2(ratio)) (acc.to MMP9) (MMP-9; [4])	isotopic enrichment (log2(ratio)) (acc.to MMP2) (MMP-2; [5])	isotopic enrichment (log2(ratio)) (acc.to MMP9) (MMP-9; [6])	isotopic enrichment (log2(ratio)) (MMP-2)
HLVRN-IQLEQP	3.263	3.263 log2(ratio)	3.981	3.981	3.981 log2(ratio)	–	–	–
RKATP-YTFPGG	1.541	1.541 log2(ratio)	1.753	1.753	1.753 log2(ratio)	–	–	–
STMNM-LGGGGS	–	–	–	–	–	2.417 log2(ratio)	0.9184 log2(ratio)	–
SDPLT-LLQADT	1.22	2.4906 log2(ratio)	2.254	2.254	2.254 log2(ratio)	–	–	1.22 log2(ratio)
HLNRG-FHQEVF	–	–	–	–	–	1.531 log2(ratio)	1.782 log2(ratio)	–
EHPVL-LTEAPL	–	1.599 log2(ratio)	–	3.462	3.462 log2(ratio)	–	–	–
KRIAN-LQTDLS	1.918	1.918 log2(ratio)	1.791	1.791	1.791 log2(ratio)	–	–	–
GFGRG-LSDKKS	1.9486	1.9486 log2(ratio)	2.021	2.021	2.021 log2(ratio)	–	–	–
SLARA-YSSFNP	2.269	2.269 log2(ratio)	2.539	2.539	2.539 log2(ratio)	–	–	–
PEPPP-LSGAPQ	1.367	1.367 log2(ratio)	1.9855	1.9855	1.9855 log2(ratio)	–	–	–
FNPLS-LEELGS	–	0.84 log2(ratio)	–	1.82	1.82 log2(ratio)	–	–	–
NFWGA-LSADGY	–	–	–	–	–	1.683 log2(ratio)	0.9855 log2(ratio)	–
PFPDG-LAEDID	–	0.9928 log2(ratio)	–	3.878	3.878 log2(ratio)	–	–	–
GGGSA-LAGGAG	–	–	–	–	–	3.0018 log2(ratio)	2.488 log2(ratio)	–
TGPRF-LISDRD	1.669	1.669 log2(ratio)	2.331	2.331	2.331 log2(ratio)	–	–	–
GYIGT-YCGQPV	–	–	–	–	–	2.548 log2(ratio)	2.478 log2(ratio)	–
PTAAA-IAYGLD	1.585	–	0.8074	–	–	–	–	1.585 log2(ratio)

Substance	isotopic enrichment (log2(ratio)) (acc.to MMP2) (MMP-2; [1])	isotopic enrichment (log2(ratio)) (acc.to MMP2) (MMP-2; [2])	isotopic enrichment (log2(ratio)) (acc.to MMP9) (MMP-9; [3])	isotopic enrichment (log2(ratio)) (MMP-9)	isotopic enrichment (log2(ratio)) (acc.to MMP9) (MMP-9; [4])	isotopic enrichment (log2(ratio)) (acc.to MMP2) (MMP-2; [5])	isotopic enrichment (log2(ratio)) (acc.to MMP9) (MMP-9; [6])	isotopic enrichment (log2(ratio)) (MMP-2)
PALAY-LASAPP	–	–	–	–	–	1.345 log2(ratio)	0.4436 log2(ratio)	–
VVPFG-VPASAT	–	0.189 log2(ratio)	–	2.014	2.014 log2(ratio)	–	–	–
TDPSK-LDSGKE	1.911	1.911 log2(ratio)	2.9782	2.9782	2.9782 log2(ratio)	–	–	–
DAPRA-VFPSIV	1.669	1.669 log2(ratio)	1.811	1.811	1.811 log2(ratio)	–	–	–
SSPRH-SEAATA	3.599	3.599 log2(ratio)	4.654	4.654	4.654 log2(ratio)	–	–	–
LPAMP-MQGGAQ	3.329	3.329 log2(ratio)	3.876	3.876	3.876 log2(ratio)	–	–	–
TRPLA-VEVVTE	4.353	4.353 log2(ratio)	4.995	4.995	4.995 log2(ratio)	–	–	–
SEPAD-FKVDED	1.891	–	1.104	–	–	–	–	1.891 log2(ratio)
GSPDA-LQNPCY	–	0.926 log2(ratio)	–	3.536	3.536 log2(ratio)	–	–	–
NFLSW-LYNDSP	1.971	1.971 log2(ratio)	1.57	1.57	1.57 log2(ratio)	–	–	–
NFIQS-IISTVE	–	–	–	–	–	–	1.111 log2(ratio)	0.903 log2(ratio)
QSPVA-VSQSKP	4.031	4.031 log2(ratio)	4.621	4.621	4.621 log2(ratio)	–	–	–
ISPGM-IKDCGA	1.183	1.183 log2(ratio)	2.036	2.036	2.036 log2(ratio)	–	–	–
GMPGE-ISEHEG	2.198	2.198 log2(ratio)	2.131	2.131	2.131 log2(ratio)	–	–	–
AGAAA-LSSASS	2.491	2.491 log2(ratio)	3.911	3.911	3.911 log2(ratio)	–	–	–
VTPAN-ASGIND	–	–	–	–	–	0.9486 log2(ratio)	1.864 log2(ratio)	–
EEPLN-VGSVAA	2.637	2.637 log2(ratio)	3.642	3.642	3.642 log2(ratio)	–	–	–
